# Assay: BioPharmaceutical Classification System (BCS) solubility and permeability class
# Type: physicochemical
# Conditions: BCS 4 = poorly soluble and poor permeability
# Procedure: The BioPharmaceutical Classification System (BCS) classifies drug substances as to their solubility and permeability. For example, a drug substance is considered highly soluble when the highest dose strength is soluble in ≤250 ml water over a pH range of 1-7, and highly permeable when the extent of absorption in humans is determined to be >90% of an administered dose, in comparison to an intravenous reference dose. A BCS 1 compound is highly soluble and highly permeable, while a BCS 4 compound is poorly soluble and has poor permeability. For BCS 4 compounds, bioavailability and the pharmacokinetic (PK) profile or parameters, such as mean maximum plasma concentration (Cmax), mean time to maximum plasma concentration (Tmax) and mean area under the plasma concentration vs. time curve (AUC) after oral administration, can be positively or negatively impacted by the formulation, the type of the excipients selected and the specific excipients. The safety and efficacy of the fixed combination oral product depends on these PK parameters being in the appropriate range. Compound 1 is a BCS 4 compound and therefore for fixed combination oral products having compound 1, or a corresponding amount of a pharmaceutically acceptable salt thereof, the type and specifics of the excipients must be carefully selected so as to achieve the target pharmacokinetic parameters.
compound,measurement,value
"CONC(=O)Nc1ccc(-c2sc3c(c2CN(C)C)c(=O)n(-c2ccc(OC)nn2)c(=O)n3Cc2c(F)cccc2F)cc1 [Compound 1, N-(4-(1-(2,6-difluorobenzyl)-5-((dimethylamino)methyl)-3-(6-methoxy-3-pyr-idazinyl)-2,4-dioxo-1,2,3,4-tetrahydrothieno[2,3-d]pyrimidin-6-yl)phenyl)-N′-methoxyurea]",BCS class,BCS 4
